This note sets out measurements from patent publication US10501458B2, “Substituted bicyclic fused ring compounds as indoleamine-2,3-dioxygenase inhibitors” (Merck Sharp & Dohme Corp., priority 2015, dated 2019).

The target in test [1] is T1, IDO1 (Homo sapiens (Human), UniProt P14902). As to the kind of experiment: IDO1 Enzyme Assay. The format is biochemical. Conditions: HIS-tagged recombinant IDO1, tryptophan substrate, fluorescence readout; for IC50: read-out: IDO1 Enzyme, pIC50 (converted). As to the method: Compounds to be tested were serially diluted in ten 3-fold steps in DMSO starting from 10 mM DMSO stocks. Compound dilutions or DMSO alone were then dispensed from the dilution plate into a Greiner black 384-well assay plate (catalog #781086) using an Echo 555 acoustic liquid handler (Labcyte).
T1 sequence (P14902 whole entry): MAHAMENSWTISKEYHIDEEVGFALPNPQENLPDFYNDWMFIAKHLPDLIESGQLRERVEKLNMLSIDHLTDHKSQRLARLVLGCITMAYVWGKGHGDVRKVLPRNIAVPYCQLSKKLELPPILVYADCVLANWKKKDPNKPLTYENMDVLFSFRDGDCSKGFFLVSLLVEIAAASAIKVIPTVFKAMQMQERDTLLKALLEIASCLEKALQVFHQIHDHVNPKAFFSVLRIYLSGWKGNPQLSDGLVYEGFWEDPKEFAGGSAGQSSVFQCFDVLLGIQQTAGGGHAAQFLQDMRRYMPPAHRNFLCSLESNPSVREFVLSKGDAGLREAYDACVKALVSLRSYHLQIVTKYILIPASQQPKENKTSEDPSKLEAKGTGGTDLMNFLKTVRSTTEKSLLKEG
HIS-tagged IDO1 protein was recombinantly expressed in Escherichia coli using ZYP5052 autoinduction media supplemented with 500 μM delta aminolevulinic acid for 48 hours at 16 degrees Celsius. IDO1 protein was purified using Ni^2+-affinity resin and size exclusion chromatography. Purified protein was then diluted in assay buffer (50 mM Tris pH 7.0, 1% glycerol, 20 uM methylene blue, 0.05% Tween-20, 20 mM sodium ascorbate, 100 units/mL catalase to obtain a final IDOL concentration of 40 nM. IDOL solution ([…]) or buffer alone ([…]) were dispensed to wells of the assay plate using a BioRAPTR liquid dispenser (Beckman Coulter). Assay plates containing compound and IDO1 enzyme were incubated at room temperature for 30 minutes. Afterwards, 10 μL of 400 μM tryptophan in assay buffer were added to each well of the assay plate using a BioRAPTR liquid dispenser. Plates were incubated at room temperature for 60 minutes and reactions were quenched by addition of 10 μL of 0.5 M methyl isonipecotate in dimethyl sulfoxide. Plates were sealed and incubated at 37 degrees Celsius for 4 hours or 50 degrees Celsius for 2 hours. The plates are allowed to cool and then centrifuged for 1 minute at 1000×g. The resulting fluoresence was measured in an Envision plate reader (Perkin Elmer) with a 400/25 nm excitation filter and an 510/20 nm emission filter.
Potencies were calculated by linear least squares fit to the four parameter logistic IC50 equation.

Test [2] addresses T1, IDO1. As to the kind of experiment: IDO1 HEK293 Cellular Assay. The class given is cell-based. Conditions: HEK293 cells transfected with Flag-IDO1, 200 μM L-Tryptophan, 20-24 hours; for IC50: read-out: HEK293 cell, pIC50 (converted). As to the method: IDO1 HEK293 Cellular Assay
Compounds to be tested were serially diluted in ten 3-fold steps in DMSO starting from 10 mM DMSO stocks. Compound dilutions or DMSO alone were then dispensed from the dilution plate into a Greiner black 384-well assay plate (catalog #781086) using an Echo 550 acoustic liquid handler (Labcyte).
HEK293 cell pellets were resuspended to 5×10^5 cells/mL in complete HEK293 culture media (89% DMEM, 10% FBS, 1% penicilllin/streptomycin). Suspended cells (2 mL) were dispensed into each well of a 6-well Corning plate (Catalog#3516). Cells were allowed to attach and were incubated for 20 hours at 37 degrees Celsius in a 5% CO2 incubator. Flag-IDO1 vector (Genscript True ORF Gold, 2 ug) in 150 uL of Opti-MEM medium was added to each well of a Corning 24 well plate (Cat#3527) and incubated for 5 minutes at room temperature. To each well of the 24-well plate was added 150 μL Lipofectamine 2000 (Gibco) and the plate incubated at room temperature for 20-30 minutes. To each well of attached cells in the 6-well plate, 250 μL of the transfection mix from the 24well plate was gently added to each well and IDO1 protein was allowed to express for 24-30 hours at 37 degrees Celsius in a 5% CO2 incubator.
Media was removed from the cells which were then washed with 2 mL Dulbecco's phosphate-buffered saline (DPBS). After removal of DPBS, 0.5 mL of TrypLE (Gibco) was added and incubated at 5 minutes until cells lift from the surface of the wells. Complete HEK293 culture media (4 mL) was added to each well and cells were collected and pooled into a conical tube. Cells were pelleted at 200×g for 5 minutes and resuspended in an equal volume of complete DMEM medium. Cells were diluted to 4×10^5 cells per mL in complete HEK293 media. L-Tryptophan was added to added to give a final concentraiton of 200 μM. The diluted transfected cells (50 μL) or nontransfected cells (50 μL) were dispensed into wells of Greiner black 384-well assay plates (catalog #781086) containing previously diluted compounds. The plate is briefly mixed and centrifuged at 200×g for 10 seconds to collect cells at the bottom of the plate. Plates were covered and incubated for 20-24 hours at 37 degrees C. in a 5% CO2 incubator. Afterwards 10 μL of 0.5 M methyl isonipecotate in dimethyl sulfoxide was added to each well, mixed, sealed, and centrifuged at 500 rpm for 10 seconds. Plates were incubated at 37 degrees in a 5% CO2 incubator overnight to develop fluoresence. The plates are allowed to cool and then centrifuged for 1 minute at 1000×g. The resulting fluoresence was measured in an Envision plate reader (Perkin Elmer) with a 400/25 nm excitation filter and an 510/20 nm emission filter.
The fluoresence intensity of each well was corrected for the background observed in wells with untransfected cells and was expressed as a fraction of the intensity observed in wells of IDO1 transfected cells and DMSO only. Potencies were calculated by linear least squares fit to the four parameter logistic IC50 equation.

The target in test [3] is TDO (Homo sapiens (Human), UniProt P48775). The experiment in a line: A172 kynurenine cell-based assay. Conditions: A172 human glioblastoma cells, 500 μM L-tryptophan, 48 hours. The method, then:
(§1) Exemplary compounds of the invention were prepared, and tested to determine their effect as TDO and/or IDO inhibitors. Two different assays were employed: 1. a cell-based assay for detecting the effect of test compounds on kynurenine production in two different cancer cell types. This assay utilised cancer cells which expressed either TDO or IDO and as such was used as a means of testing compound activity at these two enzymes in a cell-based context. 2. a TDO and IDO biochemical coupled assay which utilised recombinantly produced and purified TDO and IDO enzymes in combination with the enzyme formamidase. This coupled enzyme system allowed conversion of N-formylkynurenine produced by TDO or IDO activity to kynurenine which was then quantified by fluorescence following addition of Erhlich's Reagent The protocols for these are set out below.
(§2) Cell Based Assay for Detection of Kynurenine Produced by TDO and/or IDO
(§3) A172 (human glioblastoma) and SKOV3 (human ovarian adenocarcinoma) cells were seeded in a 96 well plate at 30,000 or 40,000 cells per well respectively in phenol red-free RPMI supplemented with 10% FCS, 2 mM L-glutamine and 500 μM L-tryptophan. IDO expression was induced in the SKOV3 cells by the addition of 500 ng/ml IFN-γ. Cells were incubated at 37° C. with or without the addition of test compound. After 48 hours, the cells were removed by centrifugation and Erhlich's reagent was added to the supernatant. The Erhlich's reagent was incubated for 5 minutes before the absorbance was read at 490 nm.

For test [4], the target named is IDO (Homo sapiens (Human), UniProt P14902). The experiment in a line: SKOV3 kynurenine cell-based assay (IDO induced by IFN-γ). Conditions: SKOV3 human ovarian adenocarcinoma cells, 500 ng/ml IFN-γ, 500 μM L-tryptophan, 48 hours. As to the method:
as §1, §2, §3

Molecules are shown by their SMILES.

Chain of IDO (P14902 whole entry): as above
Chain of TDO (P48775 whole entry): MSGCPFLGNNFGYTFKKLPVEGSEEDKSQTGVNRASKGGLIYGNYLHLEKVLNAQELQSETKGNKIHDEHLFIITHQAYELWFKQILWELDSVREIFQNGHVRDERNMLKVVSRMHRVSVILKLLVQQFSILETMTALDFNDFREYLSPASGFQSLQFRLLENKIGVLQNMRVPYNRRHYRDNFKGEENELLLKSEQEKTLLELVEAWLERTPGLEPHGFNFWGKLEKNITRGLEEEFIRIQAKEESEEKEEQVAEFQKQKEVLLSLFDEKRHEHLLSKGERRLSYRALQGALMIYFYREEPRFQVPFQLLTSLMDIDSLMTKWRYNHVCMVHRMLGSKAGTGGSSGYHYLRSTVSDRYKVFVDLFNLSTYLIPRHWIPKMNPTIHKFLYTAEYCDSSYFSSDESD

Regarding `Cn1c(N)c(N2CCN(c3cc(C(F)(F)F)cc4cncn34)CC2)c(=O)n(C)c1=O` [Compound 1037, 6-amino-1,3-dimethyl-5-{4-[7-(trifluoromethyl)imidazo[1,5-a]pyridin-5-yl]piperazin-1-yl}pyrimidine-2,4(1H,3H)-dione], the IC50 in test [1] is 794 nM; in test [2], 3980 nM.
For `Cc1noc(C2CCN(c3cc(C(F)(F)F)cc4cncn34)CC2)c1C(N)=O` [Compound 1035, 3-methyl-5-{1-[7-(trifluoromethyl)imidazo[1,5-a]pyridin-5-yl]piperidin-4-yl}isoxazole-4-carboxamide] the same measures were 251 nM and 501 nM.
For `CNC(=O)c1c(C)noc1C1CCN(c2cc(C(F)(F)F)cc3cncn23)CC1` [Compound 1036, N,3-dimethyl-5-{1-[7-(trifluoromethyl)imidazo[1,5-a]pyridin-5-yl]piperidin-4-yl}isoxazole-4-carboxamide] the same measures were 398 nM and 2510 nM.
For `FC(F)(F)c1cc(N2CCC(n3cnnn3)CC2)n2cncc2c1` [Compound 1038, 5-[4-(1H-tetrazol-1-yl)piperidin-1-yl]-7-(trifluoromethyl)imidazo[1,5-a]pyridine] the same measures were 1000 nM and 794 nM.
As for `CC1(C)CN(c2cc(Br)cc3cncn23)CCN1S(C)(=O)=O` [Compound 1021], the “A172 Kynurenine cell based assay, pIC50” value in test [3] is given as “+++ (+++ = pIC50 ≥5.50)”. Also, the “SKOV3 Kynurenine cell based assay, pIC50” value in test [4] is recorded as “+++ (+++ = pIC50 ≥5.50)”. In addition, the “IDO1 Enzyme, pIC50” value in test [1] is 6.8. In addition, the “HEK293 cell, pIC50” value in test [2] was 6.7.
